For the assay, the target named is Tyrosine-protein kinase JAK2 (Homo sapiens) (UniProt O60674). As to the kind of experiment: JAK2V617F project follow-up: kinase, reporter, cytotoxicity – HEL and Ba/F3 cells, late-stage follow-up (AID 2165). The following applies: JAK2V617F panel: kinase, IRF1 reporter.

The values below come from PubChem BioAssay AID2165 (The Scripps Research Institute Molecular Screening Center, 2009).

Activity calls are given as the source filed them. No stated cut-off is given here; in the data, active means IC50 below about 9 µM; inactive means the rest.

For orientation: IC50 means the concentration that inhibits the measured activity by half.

Sequence of Tyrosine-protein kinase JAK2 (Homo sapiens) (O60674 whole entry, looked up, change not shown): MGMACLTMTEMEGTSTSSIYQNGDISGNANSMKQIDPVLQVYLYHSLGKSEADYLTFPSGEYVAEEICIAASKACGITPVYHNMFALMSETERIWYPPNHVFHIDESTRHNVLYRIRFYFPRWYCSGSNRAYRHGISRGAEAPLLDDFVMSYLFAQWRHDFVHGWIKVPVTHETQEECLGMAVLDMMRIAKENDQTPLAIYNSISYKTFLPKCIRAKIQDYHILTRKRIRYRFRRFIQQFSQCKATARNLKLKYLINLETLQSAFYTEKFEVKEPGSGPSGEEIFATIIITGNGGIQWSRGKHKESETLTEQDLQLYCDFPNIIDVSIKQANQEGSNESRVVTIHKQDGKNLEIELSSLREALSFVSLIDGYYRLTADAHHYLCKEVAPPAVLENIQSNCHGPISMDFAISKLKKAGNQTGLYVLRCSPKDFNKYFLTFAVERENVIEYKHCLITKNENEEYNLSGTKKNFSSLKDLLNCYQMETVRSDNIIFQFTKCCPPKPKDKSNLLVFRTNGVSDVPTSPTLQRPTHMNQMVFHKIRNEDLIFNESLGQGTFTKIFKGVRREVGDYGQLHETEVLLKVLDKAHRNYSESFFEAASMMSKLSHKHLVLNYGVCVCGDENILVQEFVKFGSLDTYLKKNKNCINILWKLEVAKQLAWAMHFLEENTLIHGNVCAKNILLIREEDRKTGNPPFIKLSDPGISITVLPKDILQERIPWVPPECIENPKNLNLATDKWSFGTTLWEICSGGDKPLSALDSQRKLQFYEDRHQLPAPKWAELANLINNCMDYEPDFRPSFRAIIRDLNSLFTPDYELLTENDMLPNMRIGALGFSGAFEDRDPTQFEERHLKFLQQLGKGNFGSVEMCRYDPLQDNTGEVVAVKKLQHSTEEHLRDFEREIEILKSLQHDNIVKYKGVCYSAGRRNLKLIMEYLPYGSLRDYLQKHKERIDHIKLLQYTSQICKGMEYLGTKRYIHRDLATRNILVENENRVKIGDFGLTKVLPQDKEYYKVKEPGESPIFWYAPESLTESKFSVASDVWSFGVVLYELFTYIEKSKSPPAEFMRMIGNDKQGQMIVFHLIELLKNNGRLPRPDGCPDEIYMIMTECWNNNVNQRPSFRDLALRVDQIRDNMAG

As for `Cc1[nH]c(=O)c(C(=O)C=Cc2ccc(Br)cc2)c2c1CCCC2`, the IC50 is 0.98 µM (Ba/F3, irf1 reporter); 1.03 µM (HEL, irf1 reporter); 3.64 µM (JAK2V617F).
With `Cc1[nH]c(=O)c(C(=O)C=Cc2ccccc2Cl)c2c1CCCC2`, the IC50 runs as follows: (Ba/F3, irf1 reporter) 0.214 µM; (HEL, irf1 reporter) 0.53 µM; (JAK2V617F) 0.13 µM.
On to `Cc1ccc(Nc2nc(N)nc(CCl)n2)cc1`, for which the IC50 runs as follows: (Ba/F3, irf1 reporter) 12.7 µM; (HEL, irf1 reporter) 5.6 µM.
For `CCCC(=O)N(C1CC(C)C(C#N)(C#N)C1(C#N)C#N)N(C)C` (configuration not stated) the same measures were 0.452 µM and 5.75 µM.
Consider `CC(C)(C)c1cc(NC(=O)CCl)n(-c2ccccc2)n1`, for which the IC50 was 8.46 µM (Ba/F3, irf1 reporter) and 9.96 µM (HEL, irf1 reporter).
The matching figures for `N#C/C(=C\c1ccc(O)c(O)c1)C(=O)NCCCc1ccccc1`: 6.03 µM and 16.1 µM.
The matching figures for `Cc1ccccc1CS(=O)(=O)c1nnc([C@H](Cc2ccccc2)NC(=O)OC(C)(C)C)o1`: 1.56 µM and 13.5 µM.
Regarding `COc1ccc(-n2nnnc2SCC(=O)c2ccc(O)c(O)c2)cc1`, the IC50 runs as follows: (Ba/F3, irf1 reporter) 6.22 µM; (HEL, irf1 reporter) 25.5 µM.
The matching figures for `COc1ccc(-c2cnc3c(c2)CCC3(C#N)C#N)cc1`: 14.4 µM and 10.4 µM.
As to `Cc1cccc(OCC(=O)Nc2ccc(C)c(C)c2)c1`, for the setting “JAK2V617F”, the IC50 is > 40 µM (inactive).
As to `CC(C)(C)/C(O)=C/c1nc2cc(Cl)ccc2oc1=O`, the IC50 is 4.13 µM (Ba/F3, irf1 reporter) and 12.6 µM (HEL, irf1 reporter).
Turning to `COc1cc2ncnc(Nc3ccc(OC(F)(F)F)cc3)c2cc1OC`, the IC50 is 3.77 µM (HEL, irf1 reporter) and > 40 µM (inactive) (JAK2V617F).
The matching figures for `COc1cccc(Nc2ncnc3cc(OC)c(OC)cc23)c1`: 3.54 µM and > 40 µM (inactive).
In the case of `CC(C)C1C(C#N)=C(N)Oc2n[nH]c(-c3ccc4ccccc4c3)c21` (configuration not stated), the IC50 reads like this: (Ba/F3, irf1 reporter) 4.7 µM; (HEL, irf1 reporter) 16.1 µM.
In the case of `Cc1[nH]c(=O)c(C(=O)C=Cc2ccc(Cl)cc2Cl)c2c1CCCC2`, the IC50 by setting is: (Ba/F3, irf1 reporter) 0.53 µM; (HEL, irf1 reporter) 2.57 µM; (JAK2V617F) 1.43 µM.
Consider `COc1ccc2nc(C)cc(Sc3nc4ccccc4s3)c2c1`, for which the IC50 by setting is: (Ba/F3, irf1 reporter) 2.98 µM; (HEL, irf1 reporter) 11 µM.
The matching figures for `Oc1ccccc1OCCOc1ccccc1OCCOc1ccccc1O`: 6.74 µM and 15.9 µM.
Consider `Cc1nc([N+](=O)[O-])c(Br)n1Cc1ccc(Cl)c(Cl)c1`, for which the IC50 runs as follows: (Ba/F3, irf1 reporter) 2.62 µM; (HEL, irf1 reporter) 4.58 µM.
Take `O=C(C=Cc1ccccc1F)c1c(-c2ccccc2)c2ccccc2[nH]c1=O`: the IC50 by setting is: (Ba/F3, irf1 reporter) 0.39 µM; (HEL, irf1 reporter) 0.39 µM; (JAK2V617F) 0.39 µM.
Regarding `COc1cccc(/C=N/NC(=O)c2[nH]c(C)c(C(=O)N/N=C/c3cccc(OC)c3O)c2C)c1O`, the IC50 is 19.8 µM (Ba/F3, irf1 reporter) and 9.67 µM (HEL, irf1 reporter).
With `COC(=O)COc1cccc2c(=O)n(CC(=O)NCc3ccc(F)cc3)ccc12`, the IC50 by setting is: (Ba/F3, irf1 reporter) 16.3 µM; (HEL, irf1 reporter) 7.33 µM.
As to `O=C(O)c1[nH]c(=O)[nH]c(=O)c1F`, the IC50 is > 40 µM (inactive) (Ba/F3, irf1 reporter) and > 40 µM (inactive) (HEL, irf1 reporter).
On to `CCOc1cc2ncnc(Nc3cccc(Br)c3)c2cc1OCC`, for which the IC50 (Ba/F3, irf1 reporter) was 2.36 µM; the 50% inhibitory concentration (IC50) (HEL, irf1 reporter) is 2.59 µM; the IC50 (JAK2V617F) was 7.12 µM.
As for `COc1ccccc1C(C[N+](=O)[O-])c1c(N)n(C)c(=O)n(C)c1=O` (configuration not stated), the IC50 reads like this: (Ba/F3, irf1 reporter) 6.82 µM; (HEL, irf1 reporter) 17 µM.
Turning to `Clc1cccc(Nc2ncnc3ccccc23)c1`, the IC50 was > 40 µM (inactive) (HEL, irf1 reporter) and > 40 µM (inactive) (JAK2V617F).
Regarding `COc1ccc(C=CC(=O)c2c3c(c(C)[nH]c2=O)CCCC3)cc1`, the IC50 is > 40 µM (inactive) (Ba/F3, irf1 reporter); > 40 µM (inactive) (HEL, irf1 reporter); 6.94 µM (JAK2V617F).
Take `O=C(CCl)N=c1sccn1Cc1ccccc1Cl`: the IC50 (Ba/F3, irf1 reporter) is 9.38 µM and the IC50 (HEL, irf1 reporter) is 1.62 µM.
Consider `COc1ccc(OCC(=O)Nc2cc(C)ccc2O)cc1`, for which the IC50 (JAK2V617F) was 3.4 µM.
In the case of `Cc1[nH]c(=O)c(C(=O)C=Cc2ccc(Cl)cc2)c2c1CCCC2`, the half-maximal inhibitory concentration (IC50) is 1.07 µM (Ba/F3, irf1 reporter); 0.96 µM (HEL, irf1 reporter); 2.64 µM (JAK2V617F).
Turning to `Nc1nc(CCl)nc(Nc2ccc3ccccc3c2)n1`, the IC50 is 7.46 µM (Ba/F3, irf1 reporter) and 0.958 µM (HEL, irf1 reporter).
`N#CC(C#N)=Cc1ccc(O)c(O)c1`: the half-inhibitory concentration (IC50) was 0.24 µM (Ba/F3, irf1 reporter); > 40 µM (inactive) (HEL, irf1 reporter); > 40 µM (inactive) (JAK2V617F).
With `O=S(=O)(c1cnc(Cl)c(Cl)c1)N1CCc2ccccc21`, the IC50 reads like this: (Ba/F3, irf1 reporter) 6.39 µM; (HEL, irf1 reporter) > 40 µM (inactive).
The matching figures for `O=C(OCn1ncc(Cl)c(Cl)c1=O)c1ccccc1Cl`: 4.03 µM and 4.45 µM.
